Measurements reported in patent publication US20110071108A1, “Beta-Cyclodextrin Derivatives as Antibacterial Agents” (Pinnacle Pharmaceuticals, Inc., priority 2005, published 2011).

Assays:
Test in all cases: Bacterial panel testing, MIC by broth microdilution
Assay type in all cases: cell-based
Conditions in all cases: 20-24 hours growth
Enterococcus faecium = system: Enterococcus faecium
Summary of the method: (§1)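 Strains grown 2-4 h, 37° C, MH or BHI broth per strain; McFarland-standardized, diluted in media. Cpd 10 μg/ml in DMSO, 2-fold serial dilution cols 2-12. Rifampicin included. 20-24 h growth; clear wells scored.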

Eschericia coli = system: Eschericia coli
Summary of the method: as §1

Pseudomonas aeruginosa = system: Pseudomonas aeruginosa
Summary of the method: as §1

Salmonella choleraesuis = system: Salmonella choleraesuis
Summary of the method: as §1

Staphylococcus aureus = system: Staphylococcus aureus
Summary of the method: as §1

Bacillus atrophaeus = system: Bacillus atrophaeus
Summary of the method: as §1

Cl.Cl.Cl.Cl.Cl.Cl.Cl.N=C(N)NCCCSC[C@H]1O[C@@H]2O[C@H]3[C@H](O)[C@@H](O)[C@@H](O[C@H]4[C@H](O)[C@@H](O)[C@@H](O[C@H]5[C@H](O)[C@@H](O)[C@@H](O[C@H]6[C@H](O)[C@@H](O)[C@@H](O[C@H]7[C@H](O)[C@@H](O)[C@@H](O[C@H]8[C@H](O)[C@@H](O)[C@@H](O[C@H]1[C@H](O)[C@H]2O)O[C@@H]8CSCCCNC(=N)N)O[C@@H]7CSCCCNC(=N)N)O[C@@H]6CSCCCNC(=N)N)O[C@@H]5CSCCCNC(=N)N)O[C@@H]4CSCCCNC(=N)N)O[C@@H]3CSCCCNC(=N)N
>200 mg/L: MIC EF (Enterococcus faecium) | MIC EC (Eschericia coli) | MIC PA (Pseudomonas aeruginosa) | MIC SC (Salmonella choleraesuis) | MIC SA (Staphylococcus aureus)

Cl.Cl.Cl.Cl.Cl.Cl.Cl.N[C@@H](CC(=O)OCc1ccccc1)C(=O)NC[C@H]1O[C@@H]2O[C@H]3[C@H](O)[C@@H](O)[C@@H](O[C@H]4[C@H](O)[C@@H](O)[C@@H](O[C@H]5[C@H](O)[C@@H](O)[C@@H](O[C@H]6[C@H](O)[C@@H](O)[C@@H](O[C@H]7[C@H](O)[C@@H](O)[C@@H](O[C@H]8[C@H](O)[C@@H](O)[C@@H](O[C@H]1[C@H](O)[C@H]2O)O[C@@H]8CNC(=O)[C@@H](N)CC(=O)OCc1ccccc1)O[C@@H]7CNC(=O)[C@@H](N)CC(=O)OCc1ccccc1)O[C@@H]6CNC(=O)[C@@H](N)CC(=O)OCc1ccccc1)O[C@@H]5CNC(=O)[C@@H](N)CC(=O)OCc1ccccc1)O[C@@H]4CNC(=O)[C@@H](N)CC(=O)OCc1ccccc1)O[C@@H]3CNC(=O)[C@@H](N)CC(=O)OCc1ccccc1
>200 mg/L: MIC EF (Enterococcus faecium) | MIC EC (Eschericia coli) | MIC PA (Pseudomonas aeruginosa) | MIC SC (Salmonella choleraesuis) | MIC SA (Staphylococcus aureus)

Cl.Cl.Cl.Cl.Cl.Cl.Cl.NCCCCCSC[C@H]1O[C@@H]2O[C@H]3[C@H](O)[C@@H](O)[C@@H](O[C@H]4[C@H](O)[C@@H](O)[C@@H](O[C@H]5[C@H](O)[C@@H](O)[C@@H](O[C@H]6[C@H](O)[C@@H](O)[C@@H](O[C@H]7[C@H](O)[C@@H](O)[C@@H](O[C@H]8[C@H](O)[C@@H](O)[C@@H](O[C@H]1[C@H](O)[C@H]2O)O[C@@H]8CSCCCCCN)O[C@@H]7CSCCCCCN)O[C@@H]6CSCCCCCN)O[C@@H]5CSCCCCCN)O[C@@H]4CSCCCCCN)O[C@@H]3CSCCCCCN
>200 mg/L: MIC EF (Enterococcus faecium) | MIC EC (Eschericia coli) | MIC PA (Pseudomonas aeruginosa) | MIC SC (Salmonella choleraesuis) | MIC SA (Staphylococcus aureus)

Cl.Cl.Cl.Cl.Cl.Cl.Cl.N[C@@H](Cc1ccc(O)cc1)C(=O)NC[C@H]1O[C@@H]2O[C@H]3[C@H](O)[C@@H](O)[C@@H](O[C@H]4[C@H](O)[C@@H](O)[C@@H](O[C@H]5[C@H](O)[C@@H](O)[C@@H](O[C@H]6[C@H](O)[C@@H](O)[C@@H](O[C@H]7[C@H](O)[C@@H](O)[C@@H](O[C@H]8[C@H](O)[C@@H](O)[C@@H](O[C@H]1[C@H](O)[C@H]2O)O[C@@H]8CNC(=O)[C@@H](N)Cc1ccc(O)cc1)O[C@@H]7CNC(=O)[C@@H](N)Cc1ccc(O)cc1)O[C@@H]6CNC(=O)[C@@H](N)Cc1ccc(O)cc1)O[C@@H]5CNC(=O)[C@@H](N)Cc1ccc(O)cc1)O[C@@H]4CNC(=O)[C@@H](N)Cc1ccc(O)cc1)O[C@@H]3CNC(=O)[C@@H](N)Cc1ccc(O)cc1
>200 mg/L: MIC EF (Enterococcus faecium) | MIC EC (Eschericia coli) | MIC PA (Pseudomonas aeruginosa) | MIC SC (Salmonella choleraesuis) | MIC SA (Staphylococcus aureus)

Cl.Cl.Cl.Cl.Cl.Cl.Cl.NC(CCC(=O)OCc1ccccc1)C(=O)NCC1OC2OC3C(CNC(=O)C(N)CCC(=O)OCc4ccccc4)OC(OC4C(CNC(=O)C(N)CCC(=O)OCc5ccccc5)OC(OC5C(CNC(=O)C(N)CCC(=O)OCc6ccccc6)OC(OC6C(CNC(=O)C(N)CCC(=O)OCc7ccccc7)OC(OC7C(CNC(=O)C(N)CCC(=O)OCc8ccccc8)OC(OC8C(CNC(=O)C(N)CCC(=O)OCc9ccccc9)OC(OC1C(O)C2O)C(O)C8O)C(O)C7O)C(O)C6O)C(O)C5O)C(O)C4O)C(O)C3O (stereo not drawn)
>200 mg/L: MIC EF (Enterococcus faecium) | MIC EC (Eschericia coli) | MIC PA (Pseudomonas aeruginosa) | MIC SC (Salmonella choleraesuis) | MIC SA (Staphylococcus aureus)

Cl.Cl.Cl.Cl.Cl.Cl.Cl.NC(CS)C(=O)NCC1OC2OC3C(CNC(=O)C(N)CS)OC(OC4C(CNC(=O)C(N)CS)OC(OC5C(CNC(=O)C(N)CS)OC(OC6C(CNC(=O)C(N)CS)OC(OC7C(CNC(=O)C(N)CS)OC(OC8C(CNC(=O)C(N)CS)OC(OC1C(O)C2O)C(O)C8O)C(O)C7O)C(O)C6O)C(O)C5O)C(O)C4O)C(O)C3O (stereo not drawn)
>200 mg/L: MIC EF (Enterococcus faecium) | MIC EC (Eschericia coli) | MIC PA (Pseudomonas aeruginosa) | MIC SC (Salmonella choleraesuis) | MIC SA (Staphylococcus aureus)

CSCCC(N)C(=O)NCC1OC2OC3C(CNC(=O)C(N)CCSC)OC(OC4C(CNC(=O)C(N)CCSC)OC(OC5C(CNC(=O)C(N)CCSC)OC(OC6C(CNC(=O)C(N)CCSC)OC(OC7C(CNC(=O)C(N)CCSC)OC(OC8C(CNC(=O)C(N)CCSC)OC(OC1C(O)C2O)C(O)C8O)C(O)C7O)C(O)C6O)C(O)C5O)C(O)C4O)C(O)C3O.Cl.Cl.Cl.Cl.Cl.Cl.Cl (stereo not drawn)
>200 mg/L: MIC BA (Bacillus atrophaeus) | MIC EF (Enterococcus faecium) | MIC EC (Eschericia coli) | MIC PA (Pseudomonas aeruginosa) | MIC SC (Salmonella choleraesuis) | MIC SA (Staphylococcus aureus)

O=C(Cn1ccnc1)NCC1OC2OC3C(CNC(=O)Cn4ccnc4)OC(OC4C(CNC(=O)Cn5ccnc5)OC(OC5C(CNC(=O)Cn6ccnc6)OC(OC6C(CNC(=O)Cn7ccnc7)OC(OC7C(CNC(=O)Cn8ccnc8)OC(OC8C(CNC(=O)Cn9ccnc9)OC(OC1C(O)C2O)C(O)C8O)C(O)C7O)C(O)C6O)C(O)C5O)C(O)C4O)C(O)C3O (stereo not drawn)
>200 mg/L: MIC BA (Bacillus atrophaeus) | MIC EF (Enterococcus faecium) | MIC EC (Eschericia coli) | MIC PA (Pseudomonas aeruginosa) | MIC SC (Salmonella choleraesuis) | MIC SA (Staphylococcus aureus)

OCC1OC(OCc2cn(CC3OC4OC5C(Cn6cc(COC7OC(CO)C(O)C(O)C7O)nn6)OC(OC6C(Cn7cc(COC8OC(CO)C(O)C(O)C8O)nn7)OC(OC7C(Cn8cc(COC9OC(CO)C(O)C(O)C9O)nn8)OC(OC8C(Cn9cc(COC%10OC(CO)C(O)C(O)C%10O)nn9)OC(OC9C(Cn%10cc(COC%11OC(CO)C(O)C(O)C%11O)nn%10)OC(OC%10C(Cn%11cc(COC%12OC(CO)C(O)C(O)C%12O)nn%11)OC(OC3C(O)C4O)C(O)C%10O)C(O)C9O)C(O)C8O)C(O)C7O)C(O)C6O)C(O)C5O)nn2)C(O)C(O)C1O (stereo not drawn)
>200 mg/L: MIC BA (Bacillus atrophaeus) | MIC EF (Enterococcus faecium) | MIC EC (Eschericia coli) | MIC PA (Pseudomonas aeruginosa) | MIC SC (Salmonella choleraesuis) | MIC SA (Staphylococcus aureus)

CN(C)CCNCC(=O)NCC1OC2OC3C(CNC(=O)CNCCN(C)C)OC(OC4C(CNC(=O)CNCCN(C)C)OC(OC5C(CNC(=O)CNCCN(C)C)OC(OC6C(CNC(=O)CNCCN(C)C)OC(OC7C(CNC(=O)CNCCN(C)C)OC(OC8C(CNC(=O)CNCCN(C)C)OC(OC1C(O)C2O)C(O)C8O)C(O)C7O)C(O)C6O)C(O)C5O)C(O)C4O)C(O)C3O.Cl.Cl.Cl.Cl.Cl.Cl.Cl (stereo not drawn)
>200 mg/L: MIC BA (Bacillus atrophaeus) | MIC EF (Enterococcus faecium) | MIC EC (Eschericia coli) | MIC SC (Salmonella choleraesuis) | MIC SA (Staphylococcus aureus)

Cl.Cl.Cl.Cl.Cl.Cl.Cl.O=C(CN1CCOCC1)NCC1OC2OC3C(CNC(=O)CN4CCOCC4)OC(OC4C(CNC(=O)CN5CCOCC5)OC(OC5C(CNC(=O)CN6CCOCC6)OC(OC6C(CNC(=O)CN7CCOCC7)OC(OC7C(CNC(=O)CN8CCOCC8)OC(OC8C(CNC(=O)CN9CCOCC9)OC(OC1C(O)C2O)C(O)C8O)C(O)C7O)C(O)C6O)C(O)C5O)C(O)C4O)C(O)C3O (stereo not drawn)
>200 mg/L: MIC BA (Bacillus atrophaeus) | MIC EF (Enterococcus faecium) | MIC EC (Eschericia coli) | MIC PA (Pseudomonas aeruginosa) | MIC SC (Salmonella choleraesuis) | MIC SA (Staphylococcus aureus)

CC(C)(C)OC(=O)NCCCC[C@H](N)C(=O)NCC1OC2OC3C(CNC(=O)[C@@H](N)CCCCNC(=O)OC(C)(C)C)OC(OC4C(CNC(=O)[C@@H](N)CCCCNC(=O)OC(C)(C)C)OC(OC5C(CNC(=O)[C@@H](N)CCCCNC(=O)OC(C)(C)C)OC(OC6C(CNC(=O)[C@@H](N)CCCCNC(=O)OC(C)(C)C)OC(OC7C(CNC(=O)[C@@H](N)CCCCNC(=O)OC(C)(C)C)OC(OC8C(CNC(=O)[C@@H](N)CCCCNC(=O)OC(C)(C)C)OC(OC1C(O)C2O)C(O)C8O)C(O)C7O)C(O)C6O)C(O)C5O)C(O)C4O)C(O)C3O (stereo partly drawn)
>200 mg/L: MIC BA (Bacillus atrophaeus) | MIC EF (Enterococcus faecium) | MIC EC (Eschericia coli) | MIC PA (Pseudomonas aeruginosa) | MIC SC (Salmonella choleraesuis) | MIC SA (Staphylococcus aureus)

CCCCCCCCCCCCNCC1OC2OC3C(CNCCCCCCCCCCCC)OC(OC4C(CNCCCCCCCCCCCC)OC(OC5C(CNCCCCCCCCCCCC)OC(OC6C(CNCCCCCCCCCCCC)OC(OC7C(CNCCCCCCCCCCCC)OC(OC8C(CNCCCCCCCCCCCC)OC(OC1C(O)C2O)C(O)C8O)C(O)C7O)C(O)C6O)C(O)C5O)C(O)C4O)C(O)C3O (stereo not drawn)
>200 mg/L: MIC BA (Bacillus atrophaeus) | MIC EF (Enterococcus faecium) | MIC EC (Eschericia coli) | MIC PA (Pseudomonas aeruginosa) | MIC SC (Salmonella choleraesuis)

CCCCCCCCCCCCCCCCNCC1OC2OC3C(CNCCCCCCCCCCCCCCCC)OC(OC4C(CNCCCCCCCCCCCCCCCC)OC(OC5C(CNCCCCCCCCCCCCCCCC)OC(OC6C(CNCCCCCCCCCCCCCCCC)OC(OC7C(CNCCCCCCCCCCCCCCCC)OC(OC8C(CNCCCCCCCCCCCCCCCC)OC(OC1C(O)C2O)C(O)C8O)C(O)C7O)C(O)C6O)C(O)C5O)C(O)C4O)C(O)C3O (stereo not drawn)
>200 mg/L: MIC BA (Bacillus atrophaeus) | MIC EF (Enterococcus faecium) | MIC EC (Eschericia coli) | MIC PA (Pseudomonas aeruginosa) | MIC SC (Salmonella choleraesuis)
